According to US6667306B1, “Platelet ADP receptor inhibitors” (Millennium Pharmaceuticals, Inc., priority 1998, dated 2003):
Read-outs that look alike come from different tables or passages of the source.

Key:
[1] = tested on: ADP-induced human platelet aggregation; test: Inhibition of ADP-mediated platelet aggregation in vitro (96-well microtiter assay, washed platelets); format: cell-based; conditions: for IC50: Platelet
Protocol: The effect of test Compounds 1-8 of, respectively, Examples 1-8 on ADP-induced human platelet aggregation was assessed in 96-well microtiter assay. Human venous blood was collected from healthy, drug-free volunteers into ACD (85 mM sodium citrate, 111 mM glucose, […] citric acid) containing PGI2 (1.25 ml ACD containing 1.6 μM PGI2/10 ml blood; PGI2 was from Sigma, St. Louis, Mo.). Platelet-rich plasma (PRP) was prepared by centrifugation at 160×g for 20 minutes at room temperature. Washed platelets were prepared by centrifuging PRP for 10 minutes at 730×g and resuspending the platelet pellet in CGS (13 mM sodium citrate, 30 mM glucose, 120 mM NaCl; 2 ml CGS/10 ml original blood volume) containing 1 U/ml apyrase (grade V, Sigma, St. Louis, Mo.). After incubation at 37° C. for 15 minutes, the platelets were collected by centrifugation at 730×g for 10 minutes and resuspended at a concentration of 3×10^8 platelets/ml in Hepes-Tyrode's buffer (10 mM Hepes; 138 mM NaCl, 5.5 mM glucose, 2.9 mM KCl, 12 mM NaHCO3, pH 7.4) containing 0.1% bovine serum albumin, 1 mM CaCl2 and 1 mM MgCl2. This platelet suspension was kept >45 minutes at 37° C. before use in aggregation assays.
Inhibition of ADP-dependent aggregation was determined in 96-well flat-bottom microtiter plates using a microtiter plate shaker and plate reader similar to the procedure described by Frantantoni et al., Am. J. Clin. Pathol. 94, 613 (1990). All steps were performed at room temperature. The total reaction volume of 0.2 ml/well included in Hepes-Tyrodes buffer/0.1% BSA: 4.5×10^7 apyrase-washed platelets, 0.5 mg/ml human fibrinogen (American Diagnostica, Inc., Greenwich, Conn.), serial dilutions of test compounds (buffer for control wells) in 0.6% DMSO. After about 5 minutes preincubation at room temperature, ADP was added to a final concentration of 2 μM which induces submaximal aggregation. Buffer was added instead of ADP to one set of control wells (ADP^−control). The OD of the samples was then determined at 490 nm using a microtiter plate reader (Softmax, Molecular Devices, Menlo Park, Calif.) resulting in the 0 minute reading. The plates were then agitated for 5 min on a microtiter plate shaker and the 5 minute reading obtained in the plate reader. Aggregation was calculated from the decrease of OD at 490 nm at t=5 minutes compared to t=0 minutes and expressed as % of the decrease in the ADP control samples corrected for changes in the unaggregated control samples.
In some experiments, 0.3 mM 8-sulphophenyltheophylline (8-SPT, Sigma, St. Louis, Mo.) was added to the reaction to block any potential adenosine receptor activity of test compounds.

[2] = molecular target: platelet ADP receptors (Homo sapiens, UniProt Q9H244); test: Inhibition of [^3H]2-MeS-ADP binding to platelets
Protocol: All steps were performed at room temperature unless indicated otherwise.

[3] = molecular target: T1, human P2Y1 receptor (hP2Y1) (Homo sapiens, UniProt P47900); test: hP2Y1 receptor activity assay (2-MeS-ADP-induced intracellular calcium mobilization in hP2Y1-JA7 Jurkat cells); format: cell-based; conditions: 10^-7 M 2-MeS-ADP, read-out: IC50 on 2-MeS-ADP-mediated intracellular calcium mobilization
T1 construct: a genomic fragment encompassing the entire open reading frame of the human P2Y1 receptor; expressed in transfected cells; host or cells: Jurkat cells, clonal line hP2Y1-JA7, vector pcINeo
Protocol: Therefore, hP2Y1 receptor activity of test compounds was assessed by measuring agonist-induced intracellular calcium mobilization in a mammalian cell line expressing the cloned receptor gene.
For intracellular calcium measurements, cells were collected by centrifugation, washed and resuspended in Hepes-Tyrodes buffer/0.1% BSA/1 mM CaCl2 at 10^7 cells/ml at 37° C. Fura-2AM (Molecular Probes, Eugene, Oreg.) was added to 4 μM in the presence of 0.008% Pluronic F-27 (Molecular Probes, Eugene, Oreg.) and incubation continued for 30 minutes at 37° C. in the dark with gentle agitation. Cells were collected by centrifugation and incubated for 15 minutes at 37° C. in buffer with 1 U apyrase/ml. Cells were then centrifuged and resuspended at 4° C. and 2×10^6 cells/ml. […] Calcium responses were determined for the agonist 2-MeS-ADP (2-methylthioadenosine diphosphate, trisodium salt, RBI, Natick, Ma.) at the submaximal concentration of 10^−7M in the absence and presence of various concentrations of test compounds. Maximum ratios were determined after lysis of cells with 100 μM digitonin, minimum ratios after addition of 20 mM iris and 10 mM EGTA. […] Increases in intracellular calcium levels were determined by subtraction of baseline levels from peak calcium levels.

[4] = Homo sapiens, units given with the value (nM to μM), read-out: IC50s of ADP-dependent aggregation of human platelets, span over the series
[5] = washed human platelets, 2 μM ADP, mean of 3-12 independent experiments in duplicate, read-out: IC50 Aggregation (inhibition of ADP-dependent platelet aggregation)
[6] = outdated human platelets, 1 nM [^3H]2-MeS-ADP, mean of 2-8 independent experiments in duplicate

Chain of platelet ADP receptors (Q9H244 whole entry): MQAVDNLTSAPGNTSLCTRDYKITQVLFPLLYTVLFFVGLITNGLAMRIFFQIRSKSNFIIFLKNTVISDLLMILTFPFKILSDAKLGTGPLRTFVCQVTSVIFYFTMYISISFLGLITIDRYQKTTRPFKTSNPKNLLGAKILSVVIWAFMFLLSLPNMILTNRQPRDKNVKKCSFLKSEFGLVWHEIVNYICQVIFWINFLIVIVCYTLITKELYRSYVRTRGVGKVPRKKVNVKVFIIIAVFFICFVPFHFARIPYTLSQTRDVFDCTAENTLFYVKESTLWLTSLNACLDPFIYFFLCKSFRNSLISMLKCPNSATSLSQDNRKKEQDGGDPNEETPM
T1 sequence (P47900 whole entry, the tested form may be a part): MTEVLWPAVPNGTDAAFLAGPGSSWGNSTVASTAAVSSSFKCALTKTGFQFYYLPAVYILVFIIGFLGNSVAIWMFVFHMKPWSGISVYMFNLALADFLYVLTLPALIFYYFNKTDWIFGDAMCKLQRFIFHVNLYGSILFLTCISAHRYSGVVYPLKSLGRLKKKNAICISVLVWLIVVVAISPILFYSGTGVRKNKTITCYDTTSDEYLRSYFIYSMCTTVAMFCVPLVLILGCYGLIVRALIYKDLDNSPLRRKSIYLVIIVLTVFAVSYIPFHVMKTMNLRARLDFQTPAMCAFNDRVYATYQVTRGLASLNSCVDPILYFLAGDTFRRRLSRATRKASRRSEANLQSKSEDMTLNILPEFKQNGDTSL

SMILES	IC50 [1, 4] [nM]	IC50 [1, 5] [nM]	IC50 [2, 6] [µM]	IC50 [2] [µM]	potency on ADP-dependent aggregation in the presence of 8-sulphophenyltheophylline ([1]; 0.3 mM 8-SPT (adenosine receptor antagonist) added)	IC50 ([1]; Homo sapiens, read-out: IC50s of ADP-dependent aggregation of human platelets, span over the series) [nM]	IC50 [3] [µM]
O=C(CS(=O)(=O)Nc1nc2ccc(Cl)cc2s1)C1=C(O)N2C(=NS1(=O)=O)Sc1cc(Cl)ccc12 [Compound 4, N^1-(6-Chloro-1,3-benzothiazol-2-yl)-2-(8-chloro-4-hydroxy-2,2-dioxo-2H-2l^6-benzo[4,5][1,3]thiazolo[2,3-c][1,2,4]thiadiazin-3-yl)-2-oxo-1-ethanesulfonamide]	≥ 180	64000					
COc1ccc2c(c1)SC1=NS(=O)(=O)C(C(=O)CS(=O)(=O)Nc3nc4ccc(OC)cc4s3)=C(O)N12 [Compound 8, N^1-(6-Methoxy-1,3-benzothiazol-2-yl)-2-(8-methoxy-4-hydroxy-2,2-dioxo-2H-2l^6-benzo[4,5][1,3]thiazolo[2,3-c][1,2,4]thiadiazin-3-yl)-2-oxo-1-ethanesulfonamide]	≥ 180	1500	0.8				
O=C(CS(=O)(=O)Nc1nc2ccc([N+](=O)[O-])cc2s1)C1=C(O)N2C(=NS1(=O)=O)Sc1cc([N+](=O)[O-])ccc12 [Compound 6, N^1-(6-Nitro-1,3-benzothiazol-2-yl)-2-(8-nitro-4-hydroxy-2,2-dioxo2H-2l^6-benzo[4,5][1,3]thiazolo[2,3-c][1,2,4]thiadiazin-3-yl)-2-oxo-1-ethanesulfonamide]	≥ 180	50000					
O=C(CS(=O)(=O)Nc1nc2ccc(F)cc2s1)C1=C(O)N2C(=NS1(=O)=O)Sc1cc(F)ccc12 [Compound 7, N^1-(6-Fluoro-1,3-benzothiazol-2-yl)-2-(8-fluoro-4-hydroxy-2,2-dioxo-2H-2l^6-benzo[4,5][1,3]thiazolo[2,3-c][1,2,4]thiadiazin-3-yl)-2-oxo-1-ethanesulfonamide]	≥ 180	> 120000					
CCOc1ccc2c(c1)SC1=NS(=O)(=O)C(C(=O)CS(=O)(=O)Nc3nc4ccc(OCC)cc4s3)=C(O)N12 [Compound 1, N^1-(6-Ethoxy-1,3-benzothiazol-2-yl)-2-(8-ethoxy-4-hydroxy-2,2-dioxo-2H-2l^6-benzo[4,5][1,3]thiazolo[2,3-c][1,2,4]thiadiazin-3-yl)-2-oxo-1-ethanesulfonamide]		180		0.17	not reduced	≥ 180	> 100
O=C(CS(=O)(=O)Nc1nc2ccccc2s1)C1=C(O)N2C(=NS1(=O)=O)Sc1ccccc12 [Compound 2, N^1-(1,3-benzothiazol-2-yl)-2-(4-hydroxy-2,2-dioxo-2H-2l^6-benzo[4,5][1,3]thiazolo[2,3-c][1,2,4]thiadiazin-3-yl)-2-oxo-1-ethanesulfonamide]	≥ 180	26000					
CS(=O)(=O)c1ccc2c(c1)SC1=NS(=O)(=O)C(C(=O)CS(=O)(=O)Nc3nc4ccc(S(C)(=O)=O)cc4s3)=C(O)N12 [Compound 5, N^1-(6-Methylsulfonyl-1,3-benzothiazol-2-yl)-2-(8-methylsulfonyl-4-hydroxy-2,2-dioxo-2H-2l^6-benzo[4,5][1,3]thiazolo[2,3-c][1,2,4]thiadiazin-3-yl)-2-oxo-1-ethanesulfonamide]	≥ 180	700					
Cc1ccc2c(c1)SC1=NS(=O)(=O)C(C(=O)CS(=O)(=O)Nc3nc4ccc(C)cc4s3)=C(O)N12 [Compound 3, N^1-(6-Methyl-13-benzothiazol-2-yl)-2-(8-methyl-4-hydroxy-2,2-dioxo-2H-2l^6-benzo[4,5][1,3]thiazolo[2,3-c][1,2,4]thiadiazin-3-yl)-2-oxo-1-ethanesulfonamide]	≥ 180	9500	22				
